Biological target: T1, LeMTS1 (Solanum lycopersicum, UniProt Q1XBU5)
T1 sequence (Q1XBU5 44-609): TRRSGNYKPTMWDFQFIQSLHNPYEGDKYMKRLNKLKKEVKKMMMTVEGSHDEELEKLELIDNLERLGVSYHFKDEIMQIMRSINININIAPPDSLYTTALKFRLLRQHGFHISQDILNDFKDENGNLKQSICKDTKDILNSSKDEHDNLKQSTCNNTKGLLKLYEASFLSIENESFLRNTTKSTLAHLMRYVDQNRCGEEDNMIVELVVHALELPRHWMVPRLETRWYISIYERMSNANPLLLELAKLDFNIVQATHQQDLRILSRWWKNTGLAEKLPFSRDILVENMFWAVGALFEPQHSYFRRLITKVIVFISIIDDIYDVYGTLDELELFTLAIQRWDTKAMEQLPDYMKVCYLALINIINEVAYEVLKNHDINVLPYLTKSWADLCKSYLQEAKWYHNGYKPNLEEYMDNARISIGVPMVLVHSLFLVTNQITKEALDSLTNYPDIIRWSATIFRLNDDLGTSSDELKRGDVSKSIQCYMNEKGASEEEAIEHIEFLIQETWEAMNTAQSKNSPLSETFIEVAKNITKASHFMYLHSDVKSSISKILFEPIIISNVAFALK
Test: terpene synthase assay, SPME GC-TOF-MS of products
Format: biochemical
Details: product (E)-nerolidol; 10 uM substrate, 10 mM MgCl2, 2 mM MnCl2, HEPES pH 7.5, 30 C, 1 h

## CC(C)=CCC/C(C)=C/CC/C(C)=C/COP(=O)(O)OP(=O)(O)O [FPP]
  terpene synthase assay, SPME GC-TOF-MS of products: LeMTS1 was also able to utilize the sesquiterpene precursor farnesyl diphosphate (FPP) as substrate
